For this experiment, the target named is T1, CK1δ (Homo sapiens, UniProt P48730).
T1 construct: endogenous in cells; host or cells: Bmal1-dLuc or Per2-dLuc U2OS cells
T1 sequence (P48730 whole entry): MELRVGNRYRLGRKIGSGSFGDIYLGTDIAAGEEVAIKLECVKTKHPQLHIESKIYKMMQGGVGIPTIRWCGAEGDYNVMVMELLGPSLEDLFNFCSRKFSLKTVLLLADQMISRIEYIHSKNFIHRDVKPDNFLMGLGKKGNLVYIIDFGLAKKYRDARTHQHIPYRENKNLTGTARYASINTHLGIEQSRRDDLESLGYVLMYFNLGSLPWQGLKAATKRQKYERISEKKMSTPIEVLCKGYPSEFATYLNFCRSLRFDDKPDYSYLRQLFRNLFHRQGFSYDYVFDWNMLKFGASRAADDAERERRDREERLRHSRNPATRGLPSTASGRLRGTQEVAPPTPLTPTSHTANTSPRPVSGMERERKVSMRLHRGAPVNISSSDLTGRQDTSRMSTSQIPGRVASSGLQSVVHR
In words: CK1δ inhibition (EC50); Bmal1-dLuc or Per2-dLuc U2OS luminescence rhythm period assay. Particulars: Table 3. Type of experiment: cell-based. As for the experimental part: Bmall-dLuc or Per2-dLuc U2OS cells were suspended in the culture medium (DMEM supplemented with 10% fetal bovine serum, 0.29 mg/mL L-glutamine, 100 units/mL penicillin, and […] streptomycin) and plated onto 96-well white solid-bottom plates at 200 μL (10,000 cells) per well. After 2 days, 100 μL of the explant medium (DMEM supplemented with 2% B27, 10 mM HEPES, 0.38 mg/mL sodium bicarbonate, 0.29 mg/mL L-glutamine, 100 units/mL penicillin, […], 0.1 mg/mL gentamicin, and 1 mM luciferin, pH 7.2) was dispensed to each well, followed by the application of 1 μL of a compound of the present application (dissolved in DMSO; final concentration was 0.7% in DMSO). The plate was covered with an optically clear film and set to microplate reader (Infinite M200, Tecan).
`CC(=O)Nc1cc(-c2c(-c3ccc(F)cc3)nn3c2CN(C2COC2)CC3)ccn1` [Compound I-46, N-(4-(2-(4-fluorophenyl)-5-(oxctan-3-yl)-4,5,6,7-tetrahydropyrazolo[1,5-a]pyrazin-3-yl)pyridin-2-yl)acetamide]: the EC50 came to 1200 nM.

Regarding `CCCC(=O)Nc1cc(-c2c(-c3ccc(F)cc3)nn3c2CN(C(=O)CCC)CC3)ccn1` [Compound I-56, N-(4-(5-butyryl-2-(4-fluorophenyl)-4,5,6,7-tetrahydropyrazolo[1,5-a]pyrazin-3-yl)pyridin-2-yl)butyramide], it took 600 nM to reach a half-maximal effect (EC50).

In turn, `CC(=O)N1CCn2nc(-c3ccc(F)cc3)c(-c3ccnc(Nc4ccccc4)c3)c2C1` [Compound I-74, 1-(2-(4-fluorophenyl)-3-(2-(phenylamino)pyridin-4-yl)-6,7-dihydropyrazolo[1,5-a]pyrazin-5(4H)-yl)ethan-1-one] displayed an EC50 of 1600 nM.

For `CC(=O)N1CCn2nc(-c3ccc(F)cc3)c(-c3ccnc(NC(=O)Cc4ccccc4)c3)c2C1` [Compound I-72, N-(4-(5-acetyl-2-(4-fluorophenyl)-4,5,6,7-tetrahydropyrazolo[1,5-a]pyrazin-3-yl)pyridin-2-yl)-2-phenylacetamide], the response was half-maximal at 10 nM (EC50).

Turning to `CC(=O)N1CCn2nc(-c3ccc(F)cc3)c(-c3ccnc(NC(=O)CC4CC4)c3)c2C1` [Compound I-75, N-(4-(5-acetyl-2-(4-fluorophenyl)-4,5,6,7-tetrahydropyrazolo[1,5-a]pyrazin-3-yl)pyridin-2-yl)-2-cyclopropylacetamide], the EC50 amounted to 200 nM.

Turning to `CCC(=O)Nc1cc(-c2c(-c3ccc(F)cc3)nn3c2CN(C(=O)CC)CC3)ccn1` [Compound I-97, N-(4-(2-(4-fluorophenyl)-5-propionyl-4,5,6,7-tetrahydropyrazolo[1,5-a]pyrazin-3-yl)pyridin-2-yl)propionamide], the EC50 stood at 900 nM.

For the compound `O=C(Cc1ccc(F)cc1)Nc1cc(-c2c(-c3ccc(F)cc3)nn3c2CN(Cc2ccccc2)CC3)ccn1` [Compound I-94, N-(4-(5-benzyl-2-(4-fluorophenyl)-4,5,6,7-tetrahydropyrazolo[1,5-a]pyrazin-3-yl)pyridin-2-yl)-2-(4-fluorophenyl)acetamide], the EC50 turned out to be 200 nM.

Compound `CC(=O)N1CCn2nc(-c3ccc(F)cc3)c(-c3ccnc(Nc4ccncc4)c3)c2C1` [Compound I-101, 1-(2-(4-fluorophenyl)-3-(2-(pyridin-4-ylamino)pyridin-4-yl)-6,7-dihydropyrazolo[1,5-a]pyrazin-5(4H)-yl)ethan-1-one] yielded an EC50 of 2200 nM.

Compound `CC(=O)N1CCn2nc(-c3ccc(F)cc3)c(-c3ccnc(NC(=O)c4ccccc4)c3)c2C1` [Compound I-73, N-(4-(5-acetyl-2-(4-fluorophenyl)-4,5,6,7-tetrahydropyrazolo[1,5-a]pyrazin-3-yl)pyridin-2-yl)benzamide] registered an EC50 of 110 nM.

The compound `CC(=O)Nc1cc(-c2c(-c3ccc(F)cc3)nn3c2CN(C(C)C)CC3)ccn1` [Compound I-27, N-(4-(2-(4-fluorophenyl)-5-isopropyl-4,5,6,7-tetrahydropyrazolo[1,5-a]pyrazin-3-yl)pyridin-2-yl)acetamide] yielded an EC50 of 500 nM.

For the compound `CS(=O)(=O)N1CCn2nc(-c3ccc(F)cc3)c(-c3ccnc(N)c3)c2C1` [Compound I-25, 4-(2-(4-fluorophenyl)-5-(methylsulfonyl)-4,5,6,7-tetrahydropyrazolo[1,5-a]pyrazin-3-yl)pyridin-2-amine], a half-maximal effect (EC50) was put at 670 nM.

With `CC(C)C(=O)Nc1cc(-c2c(-c3ccc(F)cc3)nn3c2CN(C(=O)C(C)C)CC3)ccn1` [Compound I-98, N-(4-(2-(4-fluorophenyl)-5-isobutyryl-4,5,6,7-tetrahydropyrazolo[1,5-a]pyrazin-3-yl)pyridin-2-yl)isobutyramide], the EC50 came to 2100 nM.

As to `CC(=O)N1CCn2nc(-c3ccc(F)cc3)c(-c3ccnc(NC(=O)c4ccn(C)n4)c3)c2C1` [Compound I-76, N-(4-(5-acetyl-2-(4-fluorophenyl)-4,5,6,7-tetrahydropyrazolo[1,5-a]pyrazin-3-yl)pyridin-2-yl)-1-methyl-1H-pyrazole-3-carboxamide], the EC50 was found to be 1000 nM.

Turning to `CC(=O)Nc1cc(-c2c(-c3ccc(F)cc3)nn3c2CNCC3)ccn1` [Compound I-99, N-(4-(2-(4-fluorophenyl)-4,5,6,7-tetrahydropyrazolo[1,5-a]pyrazin-3-yl)pyridin-2-yl)acetamide], the response was half-maximal at 700 nM (EC50).

For `CC(=O)Nc1cc(-c2c(-c3ccc(F)cc3)nn3c2CN(CCO)CC3)ccn1` [Compound I-31, N-(4-(2-(4-fluorophenyl)-5-(2-hydroxyethyl)-4,5,6,7-tetrahydropyrazolo[1,5-a]pyrazin-3-yl)pyridin-2-yl)acetamide], the EC50 came to 300 nM.

As for `CC(=O)Nc1cc(-c2c(-c3ccc(F)cc3)nn3c2CN(C(=O)C(F)(F)F)CC3)ccn1` [Compound I-30, N-(4-(2-(4-fluorophenyl)-5-(2,2,2-trifluoroacetyl)-4,5,6,7-tetrahydropyrazolo[1,5-a]pyrazin-3-yl)pyridin-2-yl)acetamide], the half-maximal effective concentration (EC50) was 500 nM.

For the compound `CC(=O)Nc1cc(-c2c(-c3ccc(F)cc3)nn3c2CN(C2CC(F)C2)CC3)ccn1` (centres unmarked) [Compound I-49, N-(4-(5-(3-fluorocyclobutyl)-2-(4-fluorophenyl)-4,5,6,7-tetrahydropyrazolo[1,5-a]pyrazin-3-yl)pyridin-2-yl)acetamide], it took 1300 nM to reach a half-maximal effect (EC50).

As to `CC(C)(C)C(=O)Nc1cc(-c2c(-c3ccc(F)cc3)nn3c2CN(S(C)(=O)=O)CC3)ccn1` [Compound I-32, N-(4-(2-(4-fluorophenyl)-5-(methylsulfonyl)-4,5,6,7-tetrahydropyrazolo[1,5-a]pyrazin-3-yl)pyridin-2-yl)pivalamide], the EC50 was found to be 800 nM.

`CC(=O)Nc1cc(-c2c(-c3ccc(F)cc3)nn3c2CN(CC(F)(F)F)CC3)ccn1` [Compound I-29, N-(4-(2-(4-fluorophenyl)-5-(2,2,2-trifluoroethyl)-4,5,6,7-tetrahydropyrazolo[1,5-a]pyrazin-3-yl)pyridin-2-yl)acetamide] had an EC50 of 600 nM.

The compound `CC(=O)Nc1cc(-c2c(-c3ccc(F)cc3)nn3c2CN(C)CC3)ccn1` [Compound I-71, N-(4-(2-(4-fluorophenyl)-5-methyl-4,5,6,7-tetrahydropyrazolo[1,5-a]pyrazin-3-yl)pyridin-2-yl)acetamide] yielded an EC50 of 1000 nM.

`CNCCN1CCn2nc(-c3ccc(F)cc3)c(-c3ccnc(NC(C)=O)c3)c2C1` [Compound I-41, N-(4-(2-(4-fluorophenyl)-5-(2-(methylamino)ethyl)-4,5,6,7-tetrahydropyrazolo[1,5-a]pyrazin-3-yl)pyridin-2-yl)acetamide] gave an EC50 of 600 nM.

`CCN1CCn2nc(-c3ccc(F)cc3)c(-c3ccnc(NC(C)=O)c3)c2C1` [Compound I-26, N-(4-(5-ethyl-2-(4-fluorophenyl)-4,5,6,7-tetrahydropyrazolo[1,5-a]pyrazin-3-yl)pyridin-2-yl)acetamide] had an EC50 of 400 nM.

`CC(=O)Nc1cc(-c2c(-c3ccc(F)cc3)nn3c2CN(C(C)=S)CC3)ccn1` [Compound I-57] came in with an EC50 of 500 nM.

The compound `CC(=O)Nc1cc(-c2c(-c3ccc(F)cc3)nn3c2CN(C2CC2)CC3)ccn1` [Compound I-28] displayed an EC50 of 600 nM.

Take `CC(=O)Nc1cc(-c2c(-c3ccc(F)cc3)nn3c2CN(Cc2ccccc2)CC3)ccn1` [Compound I-95, N-(4-(5-benzyl-2-(4-fluorophenyl)-4,5,6,7-tetrahydropyrazolo[1,5-a]pyrazin-3-yl)pyridin-2-yl)acetamide]: the EC50 came to 1700 nM.

As for `Cc1cc(-c2c(-c3ccc(F)cc3)nn3c2CN(C2COC2)CC3)ccn1` [Compound I-12, 2-(4-fluorophenyl)-3-(2-methylpyridin-4-yl)-5-(oxetan-3-yl)-4,5,6,7-tetrahydropyrazolo[1,5-a]pyrazine], it took 20000 nM to reach a half-maximal effect (EC50).

Values taken from patent US20250276972A1, “COMPOUNDS AS CASEIN KINASE INHIBITORS” (GRITSCIENCE BIOPHARMACEUTICALS CO.,LTD., priority 2020, published 2025).
